Measurements: ChEMBL document CHEMBL3797052 (Eur J Med Chem, 2016)

Legend:
Type in all cases: functional
[1] = Antiproliferative activity against human RXF393 cells assessed as growth inhibition after 48 hrs by sulforhodamine B assay; conditions: RXF 393, 48 h; for CC50: read-out: LC50 (the source's name)
[2] = Antiproliferative activity against human SF539 cells assessed as growth inhibition after 48 hrs by sulforhodamine B assay; conditions: SF-539, 48 h
[3] = Antiproliferative activity against human MOLT4 cells assessed as growth inhibition after 48 hrs by sulforhodamine B assay; conditions: MOLT-4, 48 h
[4] = system: A549; assay: Antiproliferative activity against human A549/ATCC cells assessed as growth inhibition after 48 hrs by sulforhodamine B assay; conditions: A549, 48 h; for CC50: read-out: LC50 (the source's name)
[5] = system: NCI-H23; assay: Antiproliferative activity against human NCI-H23 cells assessed as growth inhibition after 48 hrs by sulforhodamine B assay; conditions: NCI-H23, 48 h
[6] = Antiproliferative activity against human Caki1 cells assessed as growth inhibition after 48 hrs by sulforhodamine B assay; conditions: CAKI-1, 48 h; for CC50: read-out: LC50 (the source's name)
[7] = system: MCF7; assay: Antiproliferative activity against human MCF7 cells assessed as cell growth at 10^-7 M after 48 hrs by sulforhodamine B assay; conditions: MCF7, 48 h, read-out: Activity
[8] = system: 786-0; assay: Antiproliferative activity against human 786-0 cells assessed as cell growth at 10^-6 M after 48 hrs by sulforhodamine B assay; conditions: 786-0, 48 h, read-out: Activity
[9] = system: K562; assay: Antiproliferative activity against human K562 cells assessed as cell growth at 10^-7 M after 48 hrs by sulforhodamine B assay; conditions: K562, 48 h, read-out: Activity
[10] = system: NCI-H226; assay: Antiproliferative activity against human NCI-H226 cells assessed as cell growth at 10^-7 M after 48 hrs by sulforhodamine B assay; conditions: NCI-H226, 48 h, read-out: Activity
[11] = Antiproliferative activity against human OVCAR5 cells assessed as cell growth at 10^-8 M after 48 hrs by sulforhodamine B assay; conditions: OVCAR-5, 48 h, read-out: Activity
[12] = system: SK-MEL-28; assay: Antiproliferative activity against human SK-MEL-28 cells assessed as cell growth at 10^-6 M after 48 hrs by sulforhodamine B assay; conditions: SK-MEL-28, 48 h, read-out: Activity
[13] = Antiproliferative activity against human NCI-ADR-RES cells assessed as cell growth at 10^-6 M after 48 hrs by sulforhodamine B assay; conditions: read-out: Activity
[14] = system: 786-0; assay: Antiproliferative activity against human 786-0 cells assessed as cell growth at 10^-7 M after 48 hrs by sulforhodamine B assay; conditions: 786-0, 48 h, read-out: Activity
[15] = system: KM12; assay: Antiproliferative activity against human KM12 cells assessed as cell growth at 10^-6 M after 48 hrs by sulforhodamine B assay; conditions: KM12, 48 h, read-out: Activity
[16] = system: Malme-3M; assay: Antiproliferative activity against human MALME-3M cells assessed as cell growth at 10^-6 M after 48 hrs by sulforhodamine B assay; conditions: read-out: Activity
[17] = Antiproliferative activity against human Hs 578T cells assessed as cell growth at 10^-7 M after 48 hrs by sulforhodamine B assay; conditions: read-out: Activity
[18] = system: K562; assay: Antiproliferative activity against human K562 cells assessed as cell growth at 10^-8 M after 48 hrs by sulforhodamine B assay; conditions: K562, 48 h, read-out: Activity
[19] = Antiproliferative activity against human OVCAR3 cells assessed as cell growth at 10^-8 M after 48 hrs by sulforhodamine B assay; conditions: OVCAR-3, 48 h, read-out: Activity
[20] = Antiproliferative activity against human RPMI8226 cells assessed as cell growth at 10^-4 M after 48 hrs by sulforhodamine B assay; conditions: RPMI-8226, 48 h, read-out: Activity
[21] = Antiproliferative activity against human HCT116 cells assessed as cell growth at 10^-4 M after 48 hrs by sulforhodamine B assay; conditions: HCT-116, 48 h, read-out: Activity
[22] = Antiproliferative activity against human SF539 cells assessed as cell growth at 10^-8 M after 48 hrs by sulforhodamine B assay; conditions: SF-539, 48 h, read-out: Activity
[23] = system: NCI-H522; assay: Antiproliferative activity against human NCI-H522 cells assessed as cell growth at 10^-7 M after 48 hrs by sulforhodamine B assay; conditions: NCI-H522, 48 h, read-out: Activity
[24] = Antiproliferative activity against human PC3 cells assessed as cell growth at 10^-4 M after 48 hrs by sulforhodamine B assay; conditions: PC-3, 48 h, read-out: Activity
[25] = Antiproliferative activity against human Caki1 cells assessed as cell growth at 10^-8 M after 48 hrs by sulforhodamine B assay; conditions: CAKI-1, 48 h, read-out: Activity
[26] = system: T47D; assay: Antiproliferative activity against human T47D cells assessed as cell growth at 10^-6 M after 48 hrs by sulforhodamine B assay; conditions: read-out: Activity
[27] = system: MDA-MB-468; assay: Antiproliferative activity against human MDA-MB-468 cells assessed as cell growth at 10^-6 M after 48 hrs by sulforhodamine B assay; conditions: MDA-MB-468, 48 h, read-out: Activity
[28] = Antiproliferative activity against human RPMI8226 cells assessed as cell growth at 10^-6 M after 48 hrs by sulforhodamine B assay; conditions: RPMI-8226, 48 h, read-out: Activity
[29] = Antiproliferative activity against human UACC257 cells assessed as cell growth at 10^-4 M after 48 hrs by sulforhodamine B assay; conditions: UACC-257, 48 h, read-out: Activity
[30] = Antiproliferative activity against human IGROV1 cells assessed as cell growth at 10^-6 M after 48 hrs by sulforhodamine B assay; conditions: IGROV-1, 48 h, read-out: Activity
[31] = Antiproliferative activity against human PC3 cells assessed as cell growth at 10^-6 M after 48 hrs by sulforhodamine B assay; conditions: PC-3, 48 h, read-out: Activity
[32] = Antiproliferative activity against human SW620 cells assessed as cell growth at 10^-6 M after 48 hrs by sulforhodamine B assay; conditions: SW-620, 48 h, read-out: Activity
[33] = Antiproliferative activity against human UACC62 cells assessed as cell growth at 10^-4 M after 48 hrs by sulforhodamine B assay; conditions: UACC-62, 48 h, read-out: Activity
[34] = Antiproliferative activity against human OVCAR5 cells assessed as cell growth at 10^-7 M after 48 hrs by sulforhodamine B assay; conditions: OVCAR-5, 48 h, read-out: Activity
[35] = Antiproliferative activity against human HOP62 cells assessed as cell growth at 10^-6 M after 48 hrs by sulforhodamine B assay; conditions: HOP-62, 48 h, read-out: Activity
[36] = system: NCI-H23; assay: Antiproliferative activity against human NCI-H23 cells assessed as cell growth at 10^-4 M after 48 hrs by sulforhodamine B assay; conditions: NCI-H23, 48 h, read-out: Activity

CNC(=O)c1cc(Oc2ccc(NC(=O)Nc3ccc(Cl)c(C(F)(F)F)c3)cc2)ccn1 [SORAFENIB]
GI50 [1]: 3.16 µM
TGI [1]: 10 µM
CC50 [1]: 39.8 µM
TGI [2]: 10 µM
GI50 [3]: 3.16 µM
TGI [3]: 100 µM
GI50 [4]: 3.16 µM
TGI [4]: 12.6 µM
CC50 [4]: 63.1 µM
GI50 [5]: 2 µM
TGI [5]: 5.01 µM
GI50 [6]: 3.16 µM
TGI [6]: 3.98 µM
CC50 [6]: 10 µM

CNC(=O)c1cc(Oc2ccc3nc(NC(=O)c4cc(C(F)(F)F)cc(C(F)(F)F)c4)sc3c2)ccn1
growth at 0.1 µM [7]: 89%
growth at 1 µM [8]: 91%
GI50 [1]: 2.79 µM
TGI [1]: 8.37 µM
CC50 [1]: 40 µM
GI50 [2]: 3.14 µM
LC50 [2]: 71.1 µM
TGI [2]: 14.8 µM
growth at 0.1 µM [9]: 98%
growth at 0.1 µM [10]: 99%
growth at 0.01 µM [11]: 96%
growth at 1 µM [12]: 87%
growth at 1 µM [13]: 96%
growth at 0.1 µM [14]: 90%
GI50 [3]: 2.61 µM
LC50 [3]: > 100 µM
TGI [3]: 12.4 µM
growth at 1 µM [15]: 86%
growth at 1 µM [16]: 80%
growth at 0.1 µM [17]: 93%
GI50 [4]: 3.99 µM
TGI [4]: 14.6 µM
CC50 [4]: 61.2 µM
growth at 0.01 µM [18]: 103%
growth at 0.01 µM [19]: 104%
growth at 100 µM [20]: 15%
growth at 100 µM [21]: -84%
GI50 [5]: 3.37 µM
LC50 [5]: > 100 µM
TGI [5]: 17.7 µM
growth at 0.01 µM [22]: 101%
growth at 0.1 µM [23]: 109%
growth at 100 µM [24]: -42%
GI50 [6]: 2.75 µM
TGI [6]: 10.7 µM
CC50 [6]: 62.3 µM
growth at 0.01 µM [25]: 101%
growth at 1 µM [26]: 100%
growth at 1 µM [27]: 95%
growth at 1 µM [28]: 75%
growth at 100 µM [29]: -45%
growth at 1 µM [30]: 90%
growth at 1 µM [31]: 80%
growth at 1 µM [32]: 105%
growth at 100 µM [33]: -56%
growth at 0.1 µM [34]: 80%
growth at 1 µM [35]: 103%
growth at 100 µM [36]: -45%
